Laboratory results reported in patent US11938125B2, “Use of Hsp70 as a regulator of enzymatic activity” (Zevra Denmark A/S, priority 2008, dated 2024).

Key:
WT and Hsp70 iMEFs = test: Viability of MEFs (MTT reduction); type: cell-based; conditions: 3 h
Method: The viability of cells was analyzed by the 3-(4,5-dimethylthiazole-2-yl)-2,5-diphenyltetrazolium bromide (MTT) reduction assay as described previously^67.
Assays for cell viability. Cell density was assessed by the 3-(4,5-dimethylthiazole-2-y)-2,5-[…] (MTT, SIGMA-Aldrich) reduction assay essentially as described in the art. Apoptosis-like cell death was assessed by staining the cells with 0.05 μg/ml Hoechst 33342 (Molecular Probes) and counting cells with condensed nuclei in an inverted Olympus IX-70 fluorescent Microscope (Filter U-MWU 330-385 nm). For each experiment a minimum of eight randomly chosen areas were counted.

[1] = tested on: lysosomes of WT and Hsp70 iMEFs; test: Cytosolic cathepsin activity (zFRase) in MEFs; type: cell-based, murine; conditions: 3 h
Method: Cells were treated with cisplatin as indicated, cytosolic fractions were obtained by digitonin treatment and cytosolic cysteine cathepsin (zFRase) and caspase-3-like (DEVDase) activities were determined. […] The total and cytoplasmic (digitonin-extracted) cathepsin activities were measured in digitonin-treated samples using zFR-AFC (Enzyme System Products) probe as described in the art.

lysosomes of Hsp70-MEFs = test: Live single-cell imaging of loss of lysosomal integrity (photo-oxidation) in Hsp70-MEFs; type: cell-based, murine; conditions: subtoxic desipramine 12.5 and 25 μM, 3 h
Method: Assays for lysosomal integrity. Sub-confluent cells incubated with 2 μg/ml acridine orange for 15 min at 37° C. were washed, irradiated and analyzed in Hanks balanced salt solution complemented with 3% fetal calf serum. Cells for single cell imaging were selected from 8 pre-defined areas of each well in transmitted light-mode after which the same cells were immediately visualized and exposed to blue light from USH102 100 W mercury arc burner (Ushio electric) installed in a U-ULS100HG housing (Olympus) for 20 sec. Fluorescence microscopy was performed on Olympus IX-70 inverted microscope with a […] 1×20 objective with NA=0.40. Loss of lysosomal pH gradient was quantified by counting the loss of intense red staining. A more elaborate method for assaying lysosomal integrity was developed to handle the larger lysosomal compartment of the various fibroblasts used in this study. Cells for single cell imaging were selected from 8 pre-defined areas of each well in transmitted light-mode after which the same cells were immediately and continuously exposed to 489 nm light from a 100 mW diode laser while laser scanning micrographs where captured every 330 ms on a Zeiss LSM LIVE DUO confocal system in two channels defined by bandpass filters for 495-555 nm (green) and LP650 nm (Red) light. The resulting timelapse movies where subsequently analysed by the integrated Zeiss LSM DUO software.

BMP = test: BIAcore surface plasmon resonance with immobilized BMP-containing LUVs; type: binding; conditions: pH 4.5
Method: (§1) For preparation of LUVs a lipid mixture consisting of 10 mol % sphingomyelin, 50 mol % phosphatidylcholine, 20 mol % cholesterol and 20 mol % BMP dissolved in organic solvents, was dried under a stream of argon and rehydrated in Tris/HCl buffer (pH 7.4) (Kolzer et al., 2004). The mixture was freeze-thawed nine times in liquid nitrogen and then in an incubator at 37° C. After ultrasound bath for 15 min the mixture was passed 21 times through a polycarbonate membrane with a pore diameter of 100 nm. Surface plasmon resonance measurements were performed using a BIAcore 2000 system at 25° C. LUVs (total lipid concentration 0.1 mM) were immobilized on the surface of a L1 sensor chip (BIAcore) in PBS (loading buffer). The running buffer used was sodium acetate buffer (50 mM, pH 4.5). As a control, acid sphingomyelinase (0.2 μM, 60 μl in running buffer) was injected directly on the liposome surface. Response units between 4100 RU-5250RU were obtained. The protein of interest was injected in running buffer at a flow rate of 20 μl/min at the concentrations indicated. After injection a dissociation phase of 10 min was appended.
as §1, with “Surface Plasmon Resonance (BIAcore). For” for “For”, “7.4).” for “7.4) (Kolzer et al., 2004).”, “The protein of interest was injected in running buffer at a flow rate of 20 μl/min at the concentrations indicated. After injection a dissociation phase of 10 min was appended.” left out

[2] = tested on: acid sphingomyelinase (ASM), endogenous mutated and loaded rASM; test: ASM activity of NPDA fibroblasts; type: cell-based, human; conditions: 300 nM rHsp70 48 h, or 150 nM rASM alone or with 300 nM rHsp70 24 h
Description: WT- and Hsp70-MEFs were generated, immortalized and maintained as described in the art. Human NPDA fibroblasts (83/24) originate from a skin biopsy of a patient with hepatosplenomegaly. Recombinant proteins were generated using the pET-16b vector system and Ni^2+-affinity-purification (Novagen), and labeled with Alexa Fluor 488 according to manufacturers protocol (Molecular Probes). To analyze the lysosomal integrity, we developed a real time imaging method of cells stained with acridine orange, a metachromatic weak base that accumulates in the acidic compartment of the cells staining them red and sensitizing them to photo-oxidation. The photo-oxidation-induced loss of the lysosomal pH-gradient and leakage of acridine orange to the cytosol from individual lysosomes was quantified visually as “loss of red dots” in U2-O—S cells and as a decrease in red and an increase in green fluorescence by Zeiss LSM DUO Software in fibroblasts. The total and cytoplasmic (digitonin-extracted) cathepsin activities were measured in digitonin-treated samples using zFR-AFC (Enzyme System Products) probe as described in the art. The tryptophan fluorescence spectra and liposome 900 light scattering were analyzed in a HEPES buffer (20 mM HEPES, 0.1 mM EDTA, pH as indicated) essentially as described in the art. […]

[3] = tested on: lysosomes of NPDA patient fibroblasts; test: Lysosomal stability of NPDA fibroblasts (photo-oxidation, live single-cell imaging); type: cell-based, human; conditions: NPDA fibroblasts, 24 h, 300 nM rHsp70, 150 nM rASM or combination
Method: Assays for lysosomal integrity. Sub-confluent cells incubated with 2 μg/ml acridine orange for 15 min at 37° C. were washed, irradiated and analyzed in Hanks balanced salt solution complemented with 3% fetal calf serum. Cells for single cell imaging were selected from 8 pre-defined areas of each well in transmitted light-mode after which the same cells were immediately visualized and exposed to blue light from USH102 100 W mercury arc burner (Ushio electric) installed in a U-ULS100HG housing (Olympus) for 20 sec. Fluorescence microscopy was performed on Olympus IX-70 inverted microscope with a LCPlanF1×20 objective with NA=0.40. Loss of lysosomal pH gradient was quantified by counting the loss of intense red staining. A more elaborate method for assaying lysosomal integrity was developed to handle the larger lysosomal compartment of the various fibroblasts used in this study. Cells for single cell imaging were selected from 8 pre-defined areas of each well in transmitted light-mode after which the same cells were immediately and continuously exposed to 489 nm light from a 100 mW diode laser while laser scanning micrographs where captured every 330 ms on a Zeiss LSM LIVE DUO confocal system in two channels defined by bandpass filters for 495-555 nm (green) and LP650 nm (Red) light. The resulting timelapse movies where subsequently analysed by the integrated Zeiss LSM DUO software. The total and cytoplasmic (digitonin-extracted) cathepsin activities were measured in digitonin-treated samples using zFR-AFC (Enzyme System Products) probe as described in the art.

NPDA fibroblasts = test: Lysosomal area of confocal cross sections, NPDA fibroblasts; type: cell-based, human; conditions: NPDA fibroblasts, 24 h, 300 nM rHsp70 or W90F, 150 nM rASM or combination
Description: Immunodetection and microscopy. Primary antibodies used included mouse monoclonal antibodies against Hsp70 (2H9; kindly provided by Boris Margulis, Russian Academy of Sciences, St. Petersburg, Russia), glyceraldehyde-3-phosphate dehydrogenase (GAPDH; Biogenesis), BMP (6C4), lysosomal integral membrane protein-1 (H5C6; developed by J. Thomas August and James E. K. Hildreth and obtained from the Developmental Studies Hybridoma Bank developed under the auspices of the NICHD and maintained by The University of Iowa, Department of Biological Sciences, Iowa City, USA). Proteins separated by 10% SDS-PAGE and transferred to a nitrocellulose membrane were detected by using indicated primary antibodies, appropriate peroxidase-conjugated secondary antibodies from Dako, ECL Western blotting reagents (Amersham), and Luminescent Image Reader (LAS-1000Plus, Fujifilm). For immunocytochemistry Alexa […] or Alexa Fluor®-488-conjugated secondary antibodies were used. Lysotracker Red® was used for live visualization of the lysosomal compartment. Fluorescence images were taken using a Zeiss Axiovert 100M laser scanning microscope. Lysotracker quantification and timelapse movies for lysosomal integrity were done on a Zeiss LSM LIVE DUO system.

Row | Molecule | desipramine-induced cell death and lysosomal leakage in Hsp70-MEFs as compared to WT-MEFs (WT and Hsp70 iMEFs) | viability (MTT reduction) (WT and Hsp70 iMEFs; MEFs) | permeabilization of lysosomes (leakage of lysosomal cathepsins into the cytosol) [1] | lysosomal stress resistance upon photo-oxidation (lysosomes of Hsp70-MEFs) | affinity for BMP compared to that of Hsp70 (BMP) | ASM activity [2] | lysosomal stability [3] | lysosomal area / volume of the lysosomal compartment (NPDA fibroblasts)
1 | CNCCCN1c2ccccc2CCc2ccccc21 [desipramine] | significantly reduced | reduced the viability of MEFs in a dose-dependent manner | massive permeabilization of lysosomes | reverted the lysosomal stress resistance of Hsp70-MEFs to the level of WT-MEFs |  |  |  | 
2 | rASM: recombinant acid sphingomyelinase (protein, UniProt P17405 47-631, looked up) Sphingomyelin …: LALSDSRVLWAPAEAHPLSPQGHPARLHRIVPRLRDVFGWGNLTCPICKGLFTAINLGLKKEPNVARVGSVAIKLCNLLKIAPPAVCQSIVHLFEDDMVEVWRRSVLSPSEACGLLLGSTCGHWDIFSSWNISLPTVPKPPPKPPSPPAPGAPVSRILFLTDLHWDHDYLEGTDPDCADPLCCRRGSGLPPASRPGAGYWGEYSKCDLPLRTLESLLSGLGPAGPFDMVYWTGDIPAHDVWHQTRQDQLRALTTVTALVRKFLGPVPVYPAVGNHESTPVNSFPPPFIEGNHSSRWLYEAMAKAWEPWLPAEALRTLRIGGFYALSPYPGLRLISLNMNFCSRENFWLLINSTDPAGQLQWLVGELQAAEDRGDKVHIIGHIPPGHCLKSWSWNYYRIVARYENTLAAQFFGHTHVDEFEVFYDEETLSRPLAVAFLAPSATTYIGLNPGYRVYQIDGNYSGSSHVVLDHETYILNLTQANIPGAIPHWQLLYRARETYGLPNTLPTAWHNLVYRMRGDMQLFQTFWFLYHKGHPPSEPCGTPCRLATLCAQLSARADSPALCRHLMPDGSLPEAQSLWPRPLFC |  |  |  |  | half | increased ASM activity | ability to stabilize the lysosomes | normalize the volume of the dramatically enlarged lysosomal compartment
